According to ChEMBL document CHEMBL1201862, “PubChem BioAssay data set” (2004):
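1) Cells in 96-well plates. 2) Compound, 48 h, 5 concentrations. 3) Linear interpolation between surrounding doses. 4) Unreached endpoint = highest concentration. Here, GI50 denotes the concentration required for 50% inhibition of growth.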 Calls of active or inactive are those of the source. Cut-off read from the data, not from the text of the source: active = GI50 up to about 1.1 µM and inactive = higher.

Columns and labels:
Experiment in all cases: growth of human tumour cells (NCI), 48 h
[1] = system: DLD-1
[2] = system: NCI-H226
[3] = system: SK-MEL-5
[4] = system: OVCAR-4
[5] = system: 786-0
[6] = system: DMS-273
[7] = system: UACC-257
[8] = system: NCI-H522
[9] = system: HCT-116
[10] = system: HCC 2998
[11] = system: SK-MEL-2
[12] = system: M14
[13] = system: LXFL 529
[14] = system: CCRF-CEM
[15] = system: SK-MEL-28
[16] = system: LOX IMVI
[17] = system: IGROV-1
[18] = system: OVCAR-8
[19] = system: M19-MEL
[20] = system: SN12C
[21] = system: HCT-15
[22] = system: MOLT-4
[23] = system: U-251
[24] = system: COLO 205
[25] = system: SF-268
[26] = system: OVCAR-3
[27] = system: A498
[28] = system: KM12
[29] = system: SW-620
[30] = system: ACHN
[31] = system: HOP-62
[32] = system: HOP-92
[33] = system: SNB-78
[34] = system: SK-OV-3
[35] = system: HT-29
[36] = system: UO-31
[37] = system: CAKI-1
[38] = system: SNB-75
[39] = system: XF498
[40] = system: A549
[41] = system: SR
[42] = system: RPMI-8226
[43] = system: NCI-H23
[44] = system: Malme-3M
[45] = system: NCI-H460
[46] = system: OVCAR-5
[47] = system: KM-20L2
[48] = system: TK-10
[49] = system: SF-539
[50] = system: SNB-19
[51] = system: SF-295
[52] = system: HL-60
[53] = system: HOP-18
[54] = system: DMS-114
[55] = system: K562
[56] = system: UACC-62

Cc1c(C(=O)CSc2nc3ccccc3[nH]2)c(=O)n(-c2ccccc2)n1C
GI50 [1]: > 100 µM (inactive)
GI50 [2]: > 100 µM (inactive)
GI50 [3]: > 100 µM (inactive)
GI50 [4]: > 100 µM (inactive)
GI50 [5]: > 100 µM (inactive)
GI50 [6]: > 100 µM (inactive)
GI50 [7]: > 100 µM (inactive)
GI50 [8]: > 100 µM (inactive)
GI50 [9]: > 100 µM (inactive)
GI50 [10]: > 100 µM (inactive)
GI50 [11]: > 100 µM (inactive)
GI50 [12]: > 100 µM (inactive)
GI50 [13]: > 100 µM (inactive)
GI50 [14]: > 100 µM (inactive)
GI50 [15]: > 100 µM (inactive)
GI50 [16]: > 100 µM (inactive)
GI50 [17]: > 100 µM (inactive)
GI50 [18]: > 100 µM (inactive)
GI50 [19]: > 100 µM (inactive)
GI50 [20]: > 100 µM (inactive)
GI50 [21]: > 100 µM
GI50 [22]: > 100 µM (inactive)
GI50 [23]: > 100 µM (inactive)
GI50 [24]: > 100 µM (inactive)
GI50 [25]: > 100 µM (inactive)
GI50 [26]: 41.1 µM (inactive)
GI50 [27]: > 100 µM (inactive)
GI50 [28]: > 100 µM (inactive)
GI50 [29]: > 100 µM (inactive)
GI50 [30]: > 100 µM (inactive)
GI50 [31]: > 100 µM (inactive)
GI50 [32]: > 100 µM (inactive)
GI50 [33]: > 100 µM (inactive)
GI50 [34]: > 100 µM (inactive)
GI50 [35]: > 100 µM (inactive)
GI50 [36]: > 100 µM (inactive)
GI50 [37]: > 100 µM (inactive)
GI50 [38]: > 100 µM (inactive)
GI50 [39]: > 100 µM (inactive)
GI50 [40]: > 100 µM (inactive)
GI50 [41]: > 100 µM (inactive)
GI50 [42]: > 100 µM (inactive)
GI50 [43]: > 100 µM (inactive)
GI50 [44]: 34.9 µM (inactive)
GI50 [45]: > 100 µM (inactive)
GI50 [46]: > 100 µM (inactive)
GI50 [47]: > 100 µM (inactive)
GI50 [48]: > 100 µM (inactive)
GI50 [49]: > 100 µM (inactive)
GI50 [50]: > 100 µM (inactive)
GI50 [51]: > 100 µM (inactive)
GI50 [52]: > 100 µM (inactive)

Nc1nc(N)c2ncn(CCCC(c3ccccc3)P(=O)(O)O)c2n1 (centres undefined)
GI50 [53]: > 100 µM (inactive)
GI50 [1]: > 100 µM (inactive)
GI50 [54]: > 100 µM (inactive)
GI50 [3]: > 100 µM (inactive)
GI50 [5]: > 100 µM (inactive)
GI50 [6]: > 100 µM (inactive)
GI50 [7]: > 100 µM (inactive)
GI50 [8]: > 100 µM (inactive)
GI50 [9]: > 100 µM (inactive)
GI50 [10]: > 100 µM (inactive)
GI50 [55]: > 100 µM (inactive)
GI50 [11]: > 100 µM (inactive)
GI50 [12]: > 100 µM (inactive)
GI50 [13]: > 100 µM (inactive)
GI50 [14]: > 100 µM (inactive)
GI50 [15]: > 100 µM (inactive)
GI50 [16]: > 100 µM (inactive)
GI50 [17]: > 100 µM (inactive)
GI50 [18]: > 100 µM (inactive)
GI50 [19]: > 100 µM (inactive)
GI50 [20]: > 100 µM (inactive)
GI50 [21]: > 100 µM
GI50 [23]: > 100 µM (inactive)
GI50 [24]: > 100 µM (inactive)
GI50 [25]: > 100 µM (inactive)
GI50 [26]: > 100 µM (inactive)
GI50 [27]: > 100 µM (inactive)
GI50 [28]: > 100 µM (inactive)
GI50 [29]: > 100 µM (inactive)
GI50 [30]: > 100 µM (inactive)
GI50 [31]: > 100 µM (inactive)
GI50 [32]: > 100 µM (inactive)
GI50 [33]: > 100 µM (inactive)
GI50 [34]: > 100 µM (inactive)
GI50 [35]: > 100 µM (inactive)
GI50 [36]: > 100 µM (inactive)
GI50 [37]: > 100 µM (inactive)
GI50 [38]: > 100 µM (inactive)
GI50 [56]: > 100 µM (inactive)
GI50 [40]: > 100 µM (inactive)
GI50 [41]: > 100 µM (inactive)
GI50 [42]: > 100 µM (inactive)
GI50 [43]: 19.2 µM (inactive)
GI50 [44]: > 100 µM (inactive)
GI50 [45]: > 100 µM (inactive)
GI50 [46]: > 100 µM (inactive)
GI50 [47]: > 100 µM (inactive)
GI50 [48]: > 100 µM (inactive)
GI50 [49]: > 100 µM (inactive)
GI50 [50]: > 100 µM (inactive)
GI50 [51]: > 100 µM (inactive)
GI50 [52]: > 100 µM (inactive)
